Target: Histamine H1 receptor (Homo sapiens, UniProt P35367)
Assay: Antagonistic activity against histamine H1 receptor
Format: functional

Histamine H1 receptor, sequence (P35367 whole entry): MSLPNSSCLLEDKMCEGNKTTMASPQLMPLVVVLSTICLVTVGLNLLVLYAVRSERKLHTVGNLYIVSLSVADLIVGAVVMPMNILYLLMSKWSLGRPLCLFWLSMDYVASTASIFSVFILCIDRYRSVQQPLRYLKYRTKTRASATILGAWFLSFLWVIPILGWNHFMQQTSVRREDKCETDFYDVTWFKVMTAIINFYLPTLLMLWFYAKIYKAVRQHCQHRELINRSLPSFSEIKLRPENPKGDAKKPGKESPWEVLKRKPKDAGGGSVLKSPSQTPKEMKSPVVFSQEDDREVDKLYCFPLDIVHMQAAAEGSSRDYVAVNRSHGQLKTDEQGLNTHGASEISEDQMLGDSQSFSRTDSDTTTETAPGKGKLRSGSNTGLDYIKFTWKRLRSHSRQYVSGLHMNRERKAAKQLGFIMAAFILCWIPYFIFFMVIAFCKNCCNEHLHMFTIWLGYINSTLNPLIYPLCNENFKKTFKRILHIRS

| Structure (SMILES) | IC50 [µM] |
| --- | --- |
| COc1cc(C(=O)N2CCC(CCN3CCC(C(=O)c4nc5ccccc5n4Cc4cccnc4)CC3)(c3ccccc3)C2)cc(OC)c1OC (stereo not drawn) | 0.417 |
| COc1cc(C(=O)N2CCC(CCN3CCC(C(=O)c4nc5ccccc5n4Cc4ccco4)CC3)(c3ccccc3)C2)cc(OC)c1OC (stereo not drawn) | 0.295 |
| O=C(c1nc2ccccc2n1Cc1ccc(F)cc1)C1CCN(CCC2(c3ccc4c(c3)OCO4)CCN(C(=O)c3ccc(Cl)cc3Cl)C2)CC1 (stereo not drawn) | 0.129 |
| COc1ccc(C2(CCN3CCC(C(=O)c4nc5ccccc5n4Cc4ccc(C(=O)O)cc4)CC3)CCN(C(=O)c3cc(OC)c(OC)c(OC)c3)C2)cc1OC (stereo not drawn) | 27.5 |
| CCOCCn1c(C(=O)C2CCN(CCC3(c4ccc(F)cc4)CCN(Cc4cc(OC)c(OC)c(OC)c4)C3=O)CC2)nc2ccccc21 (stereo not drawn) | 0.251 |
| COc1cc(C(=O)N2CCC(CCN3CCC(C(=O)c4nc5ccccc5n4Cc4ccncc4)CC3)(c3ccccc3)C2)cc(OC)c1OC (stereo not drawn) | 0.282 |
| COc1ccc(C2(CCN3CCC(C(=O)c4nc5ccccc5[nH]4)CC3)CCN(C(=O)c3cc(OC)c(OC)c(OC)c3)C2)cc1OC (stereo not drawn) | 1.95 |
| COc1cc(C(=O)N2CCC(CCN3CCC(C(=O)c4nc5ccccc5n4Cc4ccc(F)cc4)CC3)(c3ccc(C(F)(F)F)cc3)C2)cc(OC)c1OC (stereo not drawn) | 0.468 |
| COc1ccc(C(=O)N2CCC(CCN3CCC(C(=O)c4nc5ccccc5n4Cc4ccc(F)cc4)CC3)(c3ccc4c(c3)OCO4)C2)c(OC)c1OC (stereo not drawn) | 0.257 |
| COc1cc(C(=O)N2CCC(CCN3CCC(C(=O)c4nc5ccccc5n4Cc4ccccn4)CC3)(c3ccccc3)C2)cc(OC)c1OC (stereo not drawn) | 0.363 |
| COc1cc(C(=O)N2CCC(CCN3CCC(C(=O)c4nc5ccccc5n4Cc4ccc(C(=O)O)cc4)CC3)(c3ccccc3)C2)cc(OC)c1OC (stereo not drawn) | 33.9 |
| COc1ccc(CCN2CCC(=Nc3nc4ccccc4n3Cc3ccc(F)cc3)CC2)cc1 | 0.0468 |
| COc1cc(C(=O)N2CCC(CCN3CCC(C(=O)c4nc5ccccc5n4Cc4ccc(F)cc4)CC3)(c3ccc(Cl)c(Cl)c3)C2)cc(OC)c1OC (stereo not drawn) | 0.282 |
| COc1cc(C(=O)N2CCC(CCN3CCC(C(=O)c4nc5ccccc5n4Cc4ccc(F)cc4)CC3)(c3ccc(F)cc3F)C2)cc(OC)c1OC (stereo not drawn) | 0.437 |
| COc1ccc(C2(CCN3CCC(C(=O)c4nc5ccccc5n4Cc4ccccn4)CC3)CCN(C(=O)c3cc(OC)c(OC)c(OC)c3)C2)cc1 (stereo not drawn) | 0.501 |
| COc1ccc(C2(CCN3CCC(C(=O)c4nc5ccccc5n4Cc4ccc(F)cc4)CC3)CCN(C(=O)c3cc(OC)c(OC)c(OC)c3)C2)cc1OC (stereo not drawn) | 0.331 |
| COc1cc(C(=O)N2CCC(CCN3CCC(C(=O)c4nc5ccccc5[nH]4)CC3)(c3ccc(Cl)c(Cl)c3)C2)cc(OC)c1OC (stereo not drawn) | 0.407 |
| CC(C)Oc1cccc(CC(=O)N2CCC(CCN3CCC(C(=O)c4nc5ccccc5n4Cc4ccc(F)cc4)CC3)(c3ccc4c(c3)OCO4)C2)c1 (stereo not drawn) | 0.251 |
| COC(=O)c1ccc(Cn2c(C(=O)C3CCN(CCC4(c5ccc(OC)c(OC)c5)CCN(C(=O)c5cc(OC)c(OC)c(OC)c5)C4)CC3)nc3ccccc32)cc1 (stereo not drawn) | 0.955 |

| Structure (SMILES) | IC50 [µM] |
| --- | --- |
| COc1cc(C(=O)N2CCC(CCN3CCC(C(=O)c4nc5ccccc5n4Cc4ccc(F)cc4)CC3)(c3ccccc3)C2)cc(OC)c1OC (stereo not drawn) | 0.234 |
| CCOCCn1c(C(=O)C2CCN(CCC3(c4ccc(OC)c(OC)c4)CCN(C(=O)c4cc(OC)c(OC)c(OC)c4)C3)CC2)nc2ccccc21 (stereo not drawn) | 0.631 |
| COc1ccc(C2(CCN3CCC(C(=O)c4nc5ccccc5n4Cc4ccc(F)cc4)CC3)CCN(C(=O)c3ccccc3)C2)cc1OC (stereo not drawn) | 0.24 |
| CCOCCn1c(C(=O)C2CCN(CCC3(c4ccc(Cl)c(Cl)c4)CCN(C(=O)c4cc(OC)c(OC)c(OC)c4)C3)CC2)nc2ccccc21 (stereo not drawn) | 0.339 |
| COc1cc(C(=O)N2CCC(CCN3CCC(C(=O)c4nc5ccccc5n4CCCCOc4ccccc4C(=O)O)CC3)(c3ccccc3)C2)cc(OC)c1OC (stereo not drawn) | 9.12 |
| COC(=O)c1ccc(Cn2c(C(=O)C3CCN(CCC4(c5ccccc5)CCN(C(=O)c5cc(OC)c(OC)c(OC)c5)C4)CC3)nc3ccccc32)cc1 (stereo not drawn) | 1.17 |
| CCOC(=O)CCCn1c(C(=O)C2CCN(CCC3(c4ccc(Cl)c(Cl)c4)CCN(C(=O)c4cc(OC)c(OC)c(OC)c4)C3)CC2)nc2ccccc21 (stereo not drawn) | 0.955 |
| COc1cc(C(=O)N2CCC(CCN3CCC(C(=O)c4nc5ccccc5n4CCOCc4ccco4)CC3)(c3ccccc3)C2)cc(OC)c1OC (stereo not drawn) | 0.447 |
| COc1cc(C(=O)N2CCC(CCN3CCC(C(=O)c4nc5ccccc5n4CCN4CCOCC4)CC3)(c3ccc(Cl)c(Cl)c3)C2)cc(OC)c1OC (stereo not drawn) | 0.55 |
| COc1cc(C(=O)N2CCC(CCN3CCC(C(=O)c4nc5ccccc5n4CCCC(=O)O)CC3)(c3ccc(Cl)c(Cl)c3)C2)cc(OC)c1OC (stereo not drawn) | 10 |
| COc1cc(C(=O)N2CCC(CCN3CCC(C(=O)c4nc5ccccc5n4Cc4ccc(F)cc4)CC3)(c3ccc4c(c3)OCO4)C2)cc(OC)c1OC (stereo not drawn) | 0.204 |
| COc1ccc(CCN2CCC(C(=O)c3nc4ccccc4n3Cc3ccc(F)cc3)CC2)cc1 | 0.0589 |
| COC(=O)c1ccccc1OCCCn1c(C(=O)C2CCN(CCC3(c4ccccc4)CCN(C(=O)c4cc(OC)c(OC)c(OC)c4)C3)CC2)nc2ccccc21 (stereo not drawn) | 1 |
| CCOCCn1c(C(=O)C2CCN(CCC3(c4ccccc4)CCN(C(=O)c4cc(OC)c(OC)c(OC)c4)C3)CC2)nc2ccccc21 (stereo not drawn) | 0.38 |
| COc1cc(C(=O)N2CCC(CCN3CCC(C(=O)c4nc5ccccc5n4Cc4ccccn4)CC3)(c3ccc(F)cc3)C2)cc(OC)c1OC (stereo not drawn) | 0.562 |
| CCOc1cc(C(=O)N2CCC(CCN3CCC(C(=O)c4nc5ccccc5n4Cc4ccc(F)cc4)CC3)(c3ccc(OC)c(OC)c3)C2)cc(OCC)c1OCC (stereo not drawn) | 0.158 |
| COc1cc(C(=O)N2CCC(CCN3CCC(C(=O)c4nc5ccccc5[nH]4)CC3)(c3ccccc3)C2)cc(OC)c1OC (stereo not drawn) | 0.501 |
| COc1cc(C(=O)N2CCC(CCN3CCC(C(=O)c4nc5ccccc5n4Cc4ccccn4)CC3)(c3ccc(Cl)c(Cl)c3)C2)cc(OC)c1OC (stereo not drawn) | 0.437 |
| COc1cc(C(=O)N2CCCC(CCN3CCC(C(=O)c4nc5ccccc5n4Cc4ccc(F)cc4)CC3)(c3ccc(Cl)c(Cl)c3)C2)cc(OC)c1OC (stereo not drawn) | 0.214 |

Source: ChEMBL document CHEMBL1129219, “Use of CoMFA in validating the conformation used in designing 4-(1H-benzimidazole-2-carbonyl)piperidines with H1/NK1 receptor antagonist activity” (Bioorg Med Chem Lett, 1997)
